The numbers were not newly measured in paper PMC10090446, “Population pharmacokinetic analysis and dosing optimization of polymyxin B in critically ill patients” (Frontiers in Pharmacology, 2023), which cites them from elsewhere.

Positions of bridges follow the written chain, without caps; N, C: chain ends. Non-standard residues stand in square brackets, D forms with d. Residues, ends and D or L forms follow the SMILES beside them. *: point of attachment. X1 = CC[C@H](C)CCCCC(=O)*; Dab = NCC[C@H](N)C(=O)O

For data set [1] the following is noted: used to convert fAUC/MIC target; ref Sandri et al., 2013; cited from earlier work. As for the experimental part: Combined with population PK/PD feature parameters of antibiotics medicines, the PTA of PK/PD target for a dosing regimen at a predetermined minimum inhibitory concentration (MIC) was performed by Monte Carlo simulation. According to the 2019 International Consensus Guidelines ([Tsuji et al., 2019]), the target of fAUC/MIC for polymyxins was around 20, and the unbound fraction was determined to be 0.42 ([Sandri et al., 2013]). Thus AUC/MIC ≥ 50 was set as the efficacy target, as well as the MIC range was set at 0.25–4 mg L^-1 ([Satlin et al., 2020]). Additionally, considering the nephrotoxicity ...

For data set [2] the following is noted: critically ill patients; ref Ye et al., 2022; cited from earlier work. The text has this:
Over the last decade, more pathogenic bacteria have developed resistance, making many first-line antibiotics ineffective against infections ([Mohapatra et al., 2021]). Polymyxins were used extensively as salvage therapeutic agents for combating multidrug-resistant gram-negative bacteria (MDR-GNB) infections ([Falagas et al., 2021]). […] These specific physiolog ...

On to `CC[C@H](C)CCCCC(=O)N[C@@H](CCN)C(=O)N[C@H](C(=O)N[C@@H](CCN)C(=O)N[C@H]1CCNC(=O)[C@H]([C@@H](C)O)NC(=O)[C@H](CCN)NC(=O)[C@H](CCN)NC(=O)[C@H](CC(C)C)NC(=O)[C@@H](Cc2ccccc2)NC(=O)[C@H](CCN)NC1=O)[C@@H](C)O` [polymyxin B] (X1-[Dab]T[Dab][Dab][Dab][dF]L[Dab][Dab]T; lactam 4-C), for which the unbound fraction in data set [1] was 0.42. In data set [2], the “rate of reaching the standard polymyxin B exposure AUC at a typical clinical dose” value is listed as “approximately 54.3%”.
